IC50 data for 25 compounds are collected here from patent US12577247B2 (BUGWORKS RESEARCH, INC., priority 2021, dated 2026).

Bounds are passed on as bounds.

As a reminder, the IC50 is the concentration at which inhibition is half-maximal.

One test deals with T1, A2A receptor (Homo sapiens, UniProt P29274).
T1 construct: host or cells: HEK-293
The test is described as follows: A2aR antagonism IC50, cAMP TR-FRET in HEK-293 cells, high concentration of adenosine (30 μM).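 Also: compounds added 10 min before adenosine, then 30 min stimulation at room temperature in buffer with 100 µM rolipram and 30 µM EHNA, signal read 1 h after detection reagents.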 Type of test: cell-based. Particulars: HEK-293 cells expressing A2A receptor; agonist adenosine 30 μM; 2% HSA; inhibition of cAMP; read-out: A2AR IC50 (nM) (@30 μM Adenosine).

For the next test, the target named is T2, A2B receptor (Homo sapiens, UniProt P29275).
T2 sequence (P29275 1-332): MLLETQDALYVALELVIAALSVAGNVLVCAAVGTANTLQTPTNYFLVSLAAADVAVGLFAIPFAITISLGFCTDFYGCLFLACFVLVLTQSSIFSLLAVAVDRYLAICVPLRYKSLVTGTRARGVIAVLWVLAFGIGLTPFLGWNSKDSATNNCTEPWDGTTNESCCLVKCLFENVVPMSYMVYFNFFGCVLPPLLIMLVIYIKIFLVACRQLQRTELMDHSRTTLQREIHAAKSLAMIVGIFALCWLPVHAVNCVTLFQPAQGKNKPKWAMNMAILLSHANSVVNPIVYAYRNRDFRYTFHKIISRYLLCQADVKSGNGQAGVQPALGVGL
The test is described as follows: A2bR antagonism IC50, cAMP TR-FRET in HEK-293 cells, high concentration of adenosine (30 μM).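 Also: compounds preincubated 10 min with cells, then adenosine stimulation 30 min at room temperature in buffer with Rolipram 100 µM and EHNA 30 µM, TR-FRET read after 1 h.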 Particulars: A2BR IC50 (nM) (@30 μM Adenosine), HEK-293 cells expressing A2B receptor; agonist adenosine 30 μM; 2% HSA; inhibition of cAMP. On the technique in general: In TR-FRET formats the signal depends on donor and acceptor labels being close together.

T1 sequence (P29274 whole entry): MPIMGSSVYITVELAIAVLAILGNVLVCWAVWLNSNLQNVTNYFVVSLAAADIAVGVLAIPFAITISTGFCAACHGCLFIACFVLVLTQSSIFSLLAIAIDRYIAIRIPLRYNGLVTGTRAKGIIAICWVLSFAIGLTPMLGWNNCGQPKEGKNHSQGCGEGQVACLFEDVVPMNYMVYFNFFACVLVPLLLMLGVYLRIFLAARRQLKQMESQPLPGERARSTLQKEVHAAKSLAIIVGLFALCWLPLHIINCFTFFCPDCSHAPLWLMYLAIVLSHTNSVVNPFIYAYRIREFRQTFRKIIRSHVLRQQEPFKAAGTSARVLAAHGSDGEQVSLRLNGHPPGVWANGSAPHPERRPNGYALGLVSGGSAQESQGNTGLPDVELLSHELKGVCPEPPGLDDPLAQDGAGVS

Turning to `CCc1c(C)nn2c(N)c(C#N)c(NCCc3cccn(CCCSC)c3=O)nc12` [Example 153, 7-amino-3-ethyl-2-methyl-5-((2-(1-(3-(methylthio)propyl)-2-oxo-1,2-dihydropyridin-3-yl)ethyl)amino)pyrazolo[1,5-a]pyrimidine-6-carbonitrile], the figures for the IC50 on A2A receptor and on A2B receptor were 195 nM and 1190 nM, respectively.
On to `CCc1c(C)nn2c(N)c(C#N)c(NCCc3ccn(C4(CCNC(C)=O)CC4)n3)nc12` [Example 149, N-(2-(1-(3-(2-((7-amino-6-cyano-3-ethyl-2-methylpyrazolo[1,5-a]pyrimidin-5-yl)amino)ethyl)-1H-pyrazol-1-yl)cyclopropyl)ethyl) acetamide], for which the results for the IC50 at A2A receptor and on A2B receptor were 43 nM and 988 nM, respectively.
In the case of `Cc1nn2c(N)c(C#N)c(NCCc3ccn(C4(CN)CC4)n3)nc2c1Cl` [Example 68, 7-amino-5-((2-(1-(1-(aminomethyl)cyclopropyl)-1H-pyrazol-3-yl)ethyl)amino)-3-chloro-2-methylpyrazolo[1,5-a]pyrimidine-6-carbonitrile], the IC50 on A2A receptor was 161 nM; at A2B receptor it was 9380 nM.
With `CCc1c(C)nn2c(N)c(C#N)c(NCCc3cccn(CCSC)c3=O)nc12` [Example 142, 7-amino-3-ethyl-2-methyl-5-((2-(1-(2-(methylthio)ethyl)-2-oxo-1,2-dihydropyridin-3-yl)ethyl)amino)pyrazolo[1,5-a]pyrimidine-6-carbonitrile], the figures for the IC50 on A2A receptor and at A2B receptor were 141 nM and 1660 nM, respectively.
For the compound `Cc1nn2c(N)c(C#N)c(NCCc3ccn(C4(CCN)CC4)n3)nc2c1Cl` [Example 151, 7-amino-5-((2-(1-(1-(2-aminoethyl)cyclopropyl)-1H-pyrazol-3-yl)ethyl)amino)-3-chloro-2-methylpyrazolo[1,5-a]pyrimidine-6-carbonitrile], the values for the IC50 on A2A receptor and at A2B receptor were 95 nM and 4610 nM, respectively.
`CCc1c(C)nn2c(N)c(C#N)c(NCCc3cccn(CCCNC(C)=O)c3=O)nc12` [Example 145, N-(3-(3-(2-((7-amino-6-cyano-3-ethyl-2-methylpyrazolo[1,5-a]pyrimidin-5-yl)amino)ethyl)-2-oxopyridin-1(2H)-yl)propyl) acetamide]: the IC50 at A2A receptor is 294 nM; on A2B receptor, 1130 nM.
In the case of `CCc1c(C)nn2c(N)c(C#N)c(NCCc3cc(C)n(C4COCC4CO)n3)nc12` (single isomer, unassigned) [Example 167], the concentration for half-maximal inhibition (IC50) at A2A receptor was found to be 100 nM; at A2B receptor, 700 nM.
In the same order, the values of `CCc1c(C)nn2c(N)c(C#N)c(NCCc3cccc(C(C)O)n3)nc12` (single isomer, unassigned; (+)) [Example 159a, (+)-7-amino-3-ethyl-5-((2-(6-(1-hydroxyethyl)pyridin-2-yl)ethyl)amino)-2-methylpyrazolo[1,5-a]pyrimidine-6-carbonitrile] are 139 nM and 911 nM.
With `CCc1c(C)nn2c(N)c(C#N)c(NCCc3cccn(CCN)c3=O)nc12` [Example 126, 7-amino-5-((2-(1-(2-aminoethyl)-2-oxo-1,2-dihydropyridin-3-yl)ethyl)amino)-3-ethyl-2-methylpyrazolo[1,5-a] pyrimidine-6-carbonitrile], the results for the IC50 on A2A receptor and at A2B receptor were 1890 nM and 3550 nM, respectively.
In the case of `CCc1c(C)nn2c(N)c(C#N)c(NCCc3ccn(CCC[S+](C)[O-])n3)nc12` (single isomer, unassigned; (-)) [Example 162a, (−)-7-amino-3-ethyl-2-methyl-5-((2-(1-(3-(methylsulfinyl)propyl)-1H-pyrazol-3-yl)ethyl)amino)pyrazolo[1,5-a]pyrimidine-6-carbonitrile], the IC50 was determined as 1880 nM on A2A receptor and 5790 nM on A2B receptor.
For `CCCc1c(C)nn2c(N)c(C#N)c(NCCc3ccn(C4CCC4CO)n3)nc12` (single isomer, unassigned; (+)) [Example 165a, (+)-7-amino-5-((2-(1-(2-(hydroxymethyl)cyclobutyl)-1H-pyrazol-3-yl)ethyl)amino)-2-methyl-3-propylpyrazolo[1,5-a]pyrimidine-6-carbonitrile], the IC50 on A2A receptor is 2160 nM; on A2B receptor, > 15000 nM.
With `COCCn1cccc(CCNc2nc3c(Cl)c(C)nn3c(N)c2C#N)c1=O` [Example 92, 7-amino-3-chloro-5-((2-(1-(2-methoxyethyl)-2-oxo-1,2-dihydropyridin-3-yl)ethyl)amino)-2-methylpyrazolo[1,5-a]pyrimidine-6-carbonitrile], the figures for the IC50 on A2A receptor and at A2B receptor were 79 nM and 5640 nM, respectively.
Consider `CCc1cnn2c(N)c(C#N)c(NCCc3ccn(C4(CO)CC4)n3)nc12` [Example 71, 7-amino-3-ethyl-5-((2-(1-(1-(hydroxymethyl)cyclopropyl)-1H-pyrazol-3-yl)ethyl)amino) pyrazolo[1,5-a] pyrimidine-6-carbonitrile], for which the 50% inhibitory concentration (IC50) came to 158 nM at A2A receptor and 2820 nM at A2B receptor.
As for `CCn1cccc(CCNc2nc3c(Cl)c(C)nn3c(N)c2C#N)c1=O` [Example 70, 7-amino-3-chloro-5-((2-(1-ethyl-2-oxo-1,2-dihydropyridin-3-yl)ethyl)amino)-2-methylpyrazolo[1,5-a]pyrimidine-6-carbonitrile], the IC50 is 125 nM at A2A receptor and > 15000 nM at A2B receptor.
With `CCc1c(C)nn2c(N)c(C#N)c(NCCc3ccn(C4CCC4CO)n3)nc12` (single isomer, unassigned; (+)) [Example 78, (+)-7-amino-3-ethyl-5-((2-(1-(2-(hydroxymethyl)cyclobutyl)-1H-pyrazol-3-yl)ethyl)amino)-2-methylpyrazolo[1,5-a]pyrimidine-6-carbonitrile], the IC50 at A2A receptor was found to be 200 nM; on A2B receptor, 798 nM.
For `CCc1c(C)nn2c(N)c(C#N)c(NCCc3ccn(C4COCC4CO)n3)nc12` (single isomer, unassigned; (+)) [Example 122a, (+)-7-amino-3-ethyl-5-((2-(1-(4-(hydroxymethyl)tetrahydrofuran-3-yl)-1H-pyrazol-3-yl)ethyl)amino)-2-methyl pyrazolo[1,5-a]pyrimidine-6-carbonitrile], the IC50 came to 289 nM on A2A receptor and 707 nM on A2B receptor.
In the same order, the values of `CCc1c(C)nn2c(N)c(C#N)c(NCCc3cccc(CO[C@@H]4CCOC4)n3)nc12` [Example 166, (R)-7-amino-3-ethyl-2-methyl-5-((2-(6-(((tetrahydrofuran-3-yl)oxy)methyl)pyridine-2-yl)ethyl)amino) pyrazolo[1,5-a]pyrimidine-6-carbonitrile] are 1420 nM and 466 nM.
The matching figures for `CCc1c(C)nn2c(N)c(C#N)c(NCCc3cccc(C(O)C(F)(F)F)n3)nc12` (centres unmarked) [Example 135, 7-amino-3-ethyl-2-methyl-5-((2-(6-(2,2,2-trifluoro-1-hydroxyethyl)pyridine-2-yl)ethyl)amino) pyrazolo[1,5-a]pyrimidine-6 carbonitrile]: 1310 nM and 2220 nM.
Consider `CCc1c(C)nn2c(N)c(C#N)c(NCCc3cc(C)n(C4COCC4CO)n3)nc12` (single isomer, unassigned; (+)) [Example 168], for which the IC50 came to 90 nM at A2A receptor and 650 nM on A2B receptor.
For `CCc1cccc(CCNc2nc3c(Cl)c(C)nn3c(N)c2C#N)n1` [Example 120, 7-amino-3-chloro-5-((2-(6-ethylpyridin-2-yl)ethyl)amino)-2-methylpyrazolo[1,5-a]pyrimidine-6-carbonitrile], the IC50 at A2A receptor came out at 529 nM; on A2B receptor it was 8630 nM.
As for `Cc1nn2c(N)c(C#N)c(NCCc3ccn(CC4CC(O)C4)n3)nc2c1Cl` (single isomer, unassigned; (+)) [Example 83, (+)-7-amino-3-chloro-5-((2-(1-((3-hydroxycyclobutyl)methyl)-1H-pyrazol-3-yl)ethyl)amino)-2-methylpyrazolo[1,5-a]pyrimidine-6-carbonitrile], the values for the IC50 at A2A receptor and on A2B receptor were 109 nM and 2650 nM, respectively.
The matching figures for `CCc1c(C)nn2c(N)c(C#N)c(NCCc3ccn(C4(CCO)CC4)n3)nc12` [Example 124, 7-amino-3-ethyl-5-((2-(1-(1-(2-hydroxyethyl)cyclopropyl)-1H-pyrazol-3-yl)ethyl)amino)-2-methylpyrazolo[1,5-a] pyrimidine-6-carbonitrile]: 126 nM and 2220 nM.
As to `CCc1c(C)nn2c(N)c(C#N)c(NCCc3ccn(C4(CN)CC4)n3)nc12` [Example 146, 7-amino-5-((2-(1-(1-(aminomethyl)cyclopropyl)-1H-pyrazol-3-yl)ethyl)amino)-3-ethyl-2-methylpyrazolo[1,5-a]pyrimidine-6-carbonitrile], the IC50 on A2A receptor worked out at 255 nM; at A2B receptor, 2470 nM.
In the case of `Cc1nn2c(N)c(C#N)c(NCCc3ccn(C4CCC4CO)n3)nc2c1C` (single isomer, unassigned; (-)) [Example 104b, (−)-7-amino-5-((2-(1-(2-(hydroxymethyl)cyclobutyl)-1H-pyrazol-3-yl)ethyl)amino)-2,3-dimethylpyrazolo[1,5-a]pyrimidine-6-carbonitrile], the half-inhibitory concentration (IC50) on A2A receptor was determined as 102 nM; at A2B receptor, 2610 nM.
The matching figures for `Cc1cccc(CCNc2nc3c(Cl)c(C)nn3c(N)c2C#N)n1` [Example 119, 7-amino-3-chloro-2-methyl-5-((2-(6-methylpyridin-2-yl)ethyl)amino) pyrazolo[1,5-a]pyrimidine-6-carbonitrile]: 260 nM and 3410 nM.
